Data as given in patent publication US20260263421A1, “Method of Mitigating Radiation Injury with Geranylgeranyl Transferase Inhibitors” (BioVentures, LLC, priority 2022, published 2026).

What was measured:
[1] = tested on: small intestine of male C57BL/6J mice after 12 Gy PBI; test: 12 Gy γ-ray partial body irradiation (PBI) mouse model, intestinal injury and body weight at 2 weeks; assay type: in vivo
From the text: In addition, GGTi-298 (commercially available, MedChemExpress, Monmouth Junction, NJ) mitigated adverse effects of 12 Gy γ-ray PBI on villus height, crypt depth and crypt width. […] This bacterium is inversely associated with obesity, diabetes, inflammation and metabolic disorders. Lastly, PBI-induced increases in the percentage of Turicibacter and Clostridium species were mitigated by GGTi-2133. Several Clostridium species are known to be pathogenic, while an increase in Turicibacter depletes CD8+ lymphocytes in the gut, which can adversely affect gut immune function.
Data are represented as mean+/−standard deviation (SD; n=5 to 8 mice per group). “PBI” refers to partial body irradiation, and “Sham” refers to no PBI. The notations “a & b” refer to statistically significant difference from sham-irradiation and PBI, respectively. […] Both sham-irradiated mice and the PBI group received intraperitoneal administration of vehicle. […]
FIGS. 5A-5D are photomicrographs showing olfactomedin 4 (OLFM4) staining in the crypts of sham irradiated vehicle treated mice (FIGS. 5A), 12 Gy PBI plus vehicle treated mice (FIGS. […] 5D). Colors represent staining intensities: yellow (dark), red (medium), and green (weak). FIG. 5E is a bar graph showing the average staining intensity for dark, medium, and weak immunoreactivity obtained by analyzing 10 randomly selected crypts under 100× magnification from each mouse. Data are presented as mean+/−SD (n=5 to 8). The notation “a & b” refer to statistically significant difference from sham and PBI, respectively.
FIG. 6A is an H&E stained small intestinal section (20× magnification) to indicate how the villus height, crypt depth, and crypt width were measured with computerized analysis. […] Data are represented as mean+/−SD. The notation “a & b” refer to statistically significant difference from sham and PBI, respectively. Both sham-irradiated mice and the PBI group received intraperitoneal administration of vehicle.
Villus height and crypt depth were measured in 30 randomly selected villi and crypts (20× magnification), MSA was measured in 5 randomly selected areas (20× magnification), and enterocyte length and the length of their nucleus were measured in 3 enterocytes/villus in 10 villi (100× magnification) for each mouse.
Neutrophils and lymphocytes were scored under 40× magnification. Macrophages were scored in 30 villi under 100× magnification.
GGTi-2133 treatment increases the number of intestinal proliferating cells after PBI: Two proliferation markers (PCNA and Ki-67) were used. […] Cells were scored under 40× magnification.
Cells were scored under 20× magnification.
GGTi-2133 increases the expression of intestinal stem cell marker olfactomedin 4 (OLFM4) after PBI: The inventors assayed OLFM4 protein with immunohistochemistry and computerized image analysis to classify the immunoreactive regions as “dark,” “medium,” or “weak” based on staining intensity.
GGTi-298 treatment attenuates intestinal structural damage following PBI: In order to ensure another formulation of GGTi provides similar mitigation against intestinal damage following PBI, the inventors used GGTi-298 (MedChemExpress). […] Villus height, and crypt depth and width were measured in 30 randomly selected villi and crypts (20× magnification) for each mouse.

[2] = tested on: small intestine crypts of male C57BL/6J mice after 12 Gy PBI; test: Surviving crypt assay (PCNA) in small intestine on day 3.5 after 12 Gy PBI; assay type: in vivo, mouse; conditions: 2.5 mg/kg i.p. at 24 h and 72 h, jejunum day 3.5, vs PBI plus vehicle
Experimental: FIGS. 8A-8C are photomicrographs of small intestine sections stained for Proliferating Cell Nuclear Antigen (PCNA) in sham-irradiated vehicle treated mice (FIGS. 8A), 12 Gy PBI plus vehicle treated mice (FIG. 8B), and mice treated with 12 Gy PBI and 2.5 mg/kg GGTi-2133 on (FIG. 8C). Cross-sections from three different mice are shown in each of FIG. 8A, FIG. 8B, and FIG. 8C. Each mouse received two intraperitoneal injections of either vehicle or 2.5 mg/kg GGTi: the first injection was administered 24 hours after PBI and the second one was administered 72 hours after irradiation. Intestinal tissue was harvested 84 hours after irradiation. FIG. 8D is a bar graph showing the average number of surviving crypts from two intestinal cross sections that were used for data analysis. Crypts were scored under 20× magnification. Data are represented as mean+/−SD (n=8 animals per group). The notation “a & b” refer to statistically significant difference from sham and PBI, respectively.
GGTi-2133 treatment enhances surviving crypt number on day 3.5 after PBI: Male C57BL/6J mice were exposed to 12 Gy PBI and administered GGTi-2133 (2.5 mg/kg) at 24 hours and 72 hours after irradiation. A specimen of the jejunum was collected on day 3.5 after irradiation. The presence of more than five PCNA positive cells grouped together in a crypt was recorded as a surviving crypt. […]

[3] = tested on: PANC-1 human pancreatic epithelioid carcinoma cell line; test: MTT assay of cell proliferation and metabolic rate; assay type: cell-based; conditions: 3 concentrations, once a day for 4 days, time-dependent and dose-dependent
Experimental: (§1) Human pancreatic cancer cell lines (PANC-1, BxPC-3, PSN-1) and a human prostate cancer cell line (LNCaP) were cultured in vitro at 37° C. and 5% CO2 and incubated with GGTi-2133 at 3 different concentrations. Cell proliferation and metabolic rate were measured with an MTT assay once a day for a total of 4 days. GGTi-2133 reduced the cell proliferation rate in all 4 cell lines in a dose-dependent manner. […] Finally, GGTi-2133 reduced the metabolic activity in LNCaP cells exposed to ionizing radiation.
(§2) FIG. 10F is a bar graph showing cell proliferation and metabolic rate in the LNCaP cell line were reduced to a greater extent after combined treatment with 2 Gy radiation plus GGTi-2133 treatment, in comparison to singular treatment with either 2 Gy radiation or GGTi-2133. Data are represented as mean+/−SD (n=4).

[4] = tested on: PSN-1 human pancreatic cancer cell line; test: MTT assay of cell proliferation and metabolic rate; assay type: cell-based; conditions: 3 concentrations, once a day for 4 days, time-dependent and dose-dependent
Experimental: as §1, §2

[5] = tested on: BxPC-3 human pancreatic adenocarcinoma cell line; test: MTT assay of cell proliferation and metabolic rate; assay type: cell-based; conditions: 3 concentrations, once a day for 4 days, time-dependent and dose-dependent
Experimental: as §1, §2

PSN-1 cell line = test: Clonogenic assay (colony forming ability); assay type: cell-based, human; conditions: dose-dependent
[6] = tested on: cecal content microbiome of male C57BL/6J mice; test: Microbiome analysis of cecal content on day 3.5 after 12 Gy PBI; assay type: in vivo, mouse; conditions: 2.5 mg/kg at 24 and 72 h
Experimental: FIGS. 9A-9C are pie charts showing the distribution of different bacterial strains in the cecal content of sham-irradiated vehicle treated mice (FIGS. 9A), 12 Gy PBI plus vehicle treated mice (FIG. 9B), and mice treated with […] and 2.5 mg/kg GGTi-2133 in two administrations (FIG. 9C).
GGTi-2133 alters the percent of 3 bacterial species in the cecal content of mice on day 3.5 after PBI: Male C57BL/6J mice were exposed to 12 Gy PBI and administered GGTi-2133 (2.5 mg/kg) at 24 hours and 72 hours after irradiation. A sample of cecal content was aseptically collected 3.5 days after PBI. […] There were 8 mice in each group. […] GGTi-2133 increased the percentage of Akkermansia muciniphila in irradiated mice. The percentage of Turicibacter and Clostridium species were increased in PBI plus vehicle treated mice as compared to sham-irradiated vehicle-treated mice. The percentage of Turicibacter and Clostridium species were reduced in PBI plus GGTi-2133 treated mice compared to PBI plus vehicle treated mice.

[7] = tested on: LNCaP androgen-sensitive human prostate adenocarcinoma cell line; test: MTT assay of cell proliferation and metabolic rate, with or without 2 Gy radiation; assay type: cell-based
Experimental: as §1, §2

PANC-1 cell line = test: Clonogenic assay (colony forming ability); assay type: cell-based, human; conditions: dose-dependent
[8] = Safe dose in humans (scientific literature); assay type: in vivo, human; conditions: body surface conversion factor; 54 mg/kg in humans
Experimental: Based on scientific literature, it is understood that GGTi-2418 can be administered safely to humans in doses up to 2,060 mg/m^2 (54 mg/kg body weight) on days 1-5 of each 21-day cycle. By using a body surface conversion factor, 54 mg/kg in humans compares to 660 mg/kg in mice. In humans, GGTi can generally be administered in an effective amount with a dose escalation from about 200 mg/m^2 to 2060 mg/m^2 per day on days 1-5 of each 21-day cycle. In rats, the maximum tolerated dose for GGTi is 200 mg/kg for a single dosing or 150 mg/kg/day for 7 consecutive days. In addition to intraperitoneal administration, oral gavage, intravenous infusion, and subcutaneous administration are other acceptable modes of administration. While GGTi-298 and GGTi-2133 are the preferred GGTis in the method of the present invention, use of other GGTis are expected to show the same effects although the magnitude of the effects may not be as great.

[9] = days 1-5 of each 21-day cycle; cited from earlier work
[10] = 12 Gy PBI, 5 or 10 mg/kg body weight, vs vehicle
[11] = 12 Gy PBI, i.p. 1 or 2.5 mg/kg three times per week starting 24 h after PBI, 2 weeks, vs vehicle
[12] = 12 Gy PBI, i.p. 1 or 2.5 mg/kg, vs PBI plus vehicle

COC(=O)[C@H](CC(C)C)NC(=O)c1ccc(NC[C@@H](N)CS)cc1-c1cccc2ccccc12 [GGTi-298]
PBI-induced increase in crypt depth [1, 10]: attenuated
PBI-induced increase in crypt width [1, 10]: attenuated
PBI-induced reduction in villus height [1, 10]: attenuated

CC(C)C[C@H](NC(=O)c1ccc(NCc2cnc[nH]2)cc1-c1cccc2ccccc12)C(=O)O [GGTi-2133]
number of surviving crypts [2]: significantly (p=0.002) increased
proliferation rate and metabolic activity (MTT) [3]: suppresses
proliferation rate and metabolic activity (MTT) [4]: suppresses
proliferation rate and metabolic activity (MTT) [5]: suppresses
OLFM4 (intestinal stem cell marker) staining ([1]; 2 weeks after 12 Gy γ-ray PBI, immunohistochemistry, 1 or 2.5 mg/kg): restored
PBI-induced body weight loss ([1]; 12 Gy PBI, 2.5 mg/kg body weight i.p., vs vehicle): significantly less
proliferating cell number in the crypts (PCNA and Ki-67) ([1]; 12 Gy PBI, 2.5 mg/kg body weight, vs PBI plus vehicle): significantly increased
PBI-induced decrease in mucosal surface area (MSA) [1, 11]: attenuated
PBI-induced increase in crypt depth [1, 11]: attenuated
PBI-induced increase in enterocyte length [1, 11]: attenuated
PBI-induced increase in enterocyte nuclear length [1, 11]: attenuated
PBI-induced reduction in villus height [1, 11]: attenuated
Alcian blue staining intensity of goblet cells [1, 12]: significantly enhanced
intraepithelial macrophage (CD68) number per villus [1, 12]: decrease
lymphocyte (CD3ε positive) number in the intestine [1, 12]: significant recovery
neutrophil (MPO positive) number in the intestine [1, 12]: significant recovery
number of mucus secreting goblet cells (Alcian blue) [1, 12]: elevated
stromal macrophage (CD68) number per villus [1, 12]: decrease
colony forming ability (PSN-1 cell line): suppresses
percentage of Akkermansia muciniphila in cecal content ([6]; irradiated mice): increased
percentage of Clostridium species in cecal content ([6]; vs PBI plus vehicle): reduced
percentage of Turicibacter species in cecal content ([6]; vs PBI plus vehicle): reduced
proliferation rate and metabolic activity (MTT) ([7]; 3 concentrations, once a day for 4 days, time-dependent and dose-dependent): suppresses
radiation-induced decline in proliferation rate and metabolic activity ([7]; combined with 2 Gy radiation vs either treatment alone): enhances
colony forming ability (PANC-1 cell line): suppresses

Cc1nc[nH]c1CN1CCN(C(=O)N[C@@H](CC(C)C)C(=O)O)[C@@H](Cc2ccccc2)C1=O [GGTi-2418]
mouse equivalent of the safe human dose [8]: 660 mg/kg
dose that can be administered safely to humans [9]: up to 2,060 mg/m^2
dose that can be administered safely to humans, per body weight [9]: ≤ 54 mg/kg body weight
